One assay deals with reactive oxygen species. Kind of assay: Oxidative stress level (ROS) in the cerebral cortex of LPS-treated mice. The format is in vivo. The following applies: cerebral cortex sampled Day 6; oral gavage 0.02 mL/10 g daily Days 1-5; LPS 1 mg/kg intraperitoneally Days 3, 4, 5. The procedure: (§1) The antidepressant effect of the composition was evaluated through the forced swim test in mice and measurement of oxidative stress levels in the cerebral cortex. Specific procedures were as follows:
(§2) Mice aged 8-9 weeks were selected as test subjects (10 mice per composition group for differential analysis and multiple comparisons; in differential analysis, * denoted p<0.05, ** p<0.01, *** p<0.001). The neural repair compositions prepared in the above examples and comparative examples were administered to mice via oral gavage. A positive control group treated with lipopolysaccharide (LPS) and a blank control group treated with physiological saline were included. From Days 1-5, mice were orally gavaged daily at the same time with 0.02 mL (normalized to body weight)/10 g of the compositions. On Days 3, 4, and 5, LPS (1 mg/kg) was intraperitoneally administered alongside the compositions. The positive control group differed by receiving only LPS (1 mg/kg) on Days 3, 4, and 5, while the blank control group received physiological saline throughout Days 1-5. On Day 6, behavioral tests (immobility time in the forced swim test, in s) and tissue sampling for oxidative stress assessment (reactive oxygen species absorption levels, expressed as absorbance) were conducted. The results are detailed in FIG. *to FIG. 2 and Tables 1-2.

The next assay has as its system mice. Kind of assay: Forced swim test in LPS-treated mice (improvement of depression). The format is in vivo. To be noted: forced swim test on Day 6; oral gavage 0.02 mL/10 g daily Days 1-5; LPS 1 mg/kg intraperitoneally Days 3, 4, 5; 10 mice per group. The protocol:
as §1, §2

The substance lipopolysaccharide [LPS] displayed an ROS absorption level with reactive oxygen species of 0.47 ± 0.10 absorbance. Further, in the assay with mice, the “Immobility time of mice” value is given as 230 ± 26 s.
